Counter-ions that a name gives are not always drawn. Residues, ends and D or L forms follow the SMILES beside them. *: point of attachment. Cbz = O=C(OCc1ccccc1)* A value given as a limit tells only on which side of the number the result lay.

For the first test, the system named is Ebola virus. Nature of the test: microbe, parasite or virus in culture. As to conditions: Zaire ebolavirus, Vero. Type of test: cell-based, Ebolavirus (EBOV).
As a reminder, the IC50 is the concentration needed to halve the response being measured. Compound `CC(C)C(=O)OCC(=O)[C@@]12O[C@H](C3CCCCC3)O[C@@H]1C[C@H]1[C@@H]3CCC4=CC(=O)C=C[C@]4(C)[C@H]3[C@@H](O)C[C@@]12C` [Ciclesonide] came in with a concentration for half-maximal inhibition (IC50) of 16 µM. `COCc1c(C(C)C)nc(C(C)C)c(/C=C/[C@@H](O)C[C@@H](O)CC(=O)O)c1-c1ccc(F)cc1` [Cerivastatin Sodium] had an IC50 of 0.1 µM. Compound `C/C=C(/C)C(=O)O[C@H]1C(C)=C2[C@H]([C@@H]1OC(=O)CCCCCCC)[C@@](C)(OC(C)=O)C[C@H](OC(=O)CCC)[C@@]1(O)[C@H]2OC(=O)[C@@]1(C)O` [Thapsigargin] had an IC50 of less than 0.3 µM. Take `O=C([O-])CN(CCN(CC(=O)[O-])CC(=O)[O-])CC(=O)[O-].[Ca+2].[Na+].[Na+]` [Edetate Calcium Disodium]: the IC50 is 6.6 µM. `Fc1ccc(C(OCCN2CCN(CCCc3ccccc3)CC2)c2ccc(F)cc2)cc1` [Vanoxerine] had an IC50 of 5.8 µM. `CNC(=O)c1cc(Oc2ccc(NC(=O)Nc3ccc(Cl)c(C(F)(F)F)c3)cc2)ccn1` [Sorafenib Tosylate]: the IC50 turned out to be 3.9 µM. `CN1CCC(CN2c3ccccc3Sc3ccccc32)C1` (centres unmarked) [Methdilazine Hydrochloride] registered a half-maximal inhibitory concentration (IC50) of 7.1 µM. Compound `CC(C)[C@H](NC(=O)OCc1ccccc1)C(=O)N[C@H](C=O)Cc1ccccc1` [Carbobenzoxy-valinyl-phenylalaninal] (Cbz-Val-Phe-aldehyde) registered a 50% inhibitory concentration (IC50) of 2.9 µM. For the compound `CCOC(=O)C1=C(COCCN)NC(C)=C(C(=O)OC)C1c1ccccc1Cl` (centres unmarked) [Amlodipine Besylate], the half-maximal inhibitory concentration (IC50) is 13.2 µM. Same read-out and setting: for `CC(C)(C)c1ccc(C(O)CCCN2CCC(C(O)(c3ccccc3)c3ccccc3)CC2)cc1` (centres unmarked) [Terfenadine] the value was 6.1 µM; for `O=C(c1ccc(OCCN2CCCCC2)cc1)c1c(-c2ccc(O)cc2)sc2cc(O)ccc12` [Raloxifene Hydrochloride], 2.4 µM; for `C#C[C@]1(O)CC[C@H]2[C@@H]3CCC4=Cc5oncc5C[C@]4(C)[C@H]3CC[C@@]21C` [Danazol], 12.9 µM.

Compound `C=C(C)[C@H]1Cc2c(ccc3c2O[C@@H]2COc4cc(OC)c(OC)cc4[C@@H]2C3=O)O1` [Rotenone] displayed an IC50 of less than 2 µM. For the compound `N#CC(C#N)=NNc1ccc(OC(F)(F)F)cc1` [Carbonyl cyanide 4-(trifluoromethoxy)phenylhydrazone], the midpoint of inhibition, the IC50, lay at 4.5 µM.

In the case of `CC(=O)OCC1=C(C(=O)O)N2C(=O)[C@@H](NC(=O)CSc3ccncc3)[C@H]2SC1` [Cephapirin Sodium], the IC50 amounted to 9.8 µM. For `COc1cc2c(cc1OC)[C@@H]1C(=O)c3ccc4c(c3O[C@@H]1CO2)C=CC(C)(C)O4` [Deguelin], the IC50 amounted to 0.5 µM. The same measure, in the same setting: for `C1CCC(C(CC2CCCCN2)C2CCCCC2)CC1` (centres unmarked) [Perhexiline Maleate] the value was 4.1 µM.

The same test, now with this note: Zaire ebolavirus, Vero, read-out: Max Effect.
Regarding `CCCCCCCCOC(=O)c1cc(O)c(O)c(O)c1` [Octyl Gallate], the Emax was determined as 43.9%. Take `CCC(=O)O[C@](Cc1ccccc1)(c1ccccc1)[C@H](C)CN(C)C` [Propoxyphene Hydrochloride]: the Emax came out at 42.2%. As to `CCN(CCCc1ccccc1)CCCc1ccccc1` [Alverine Citrate], the Emax came to 49.5%. Still for that read-out and setting: the figure for `O=C(O)Cc1cc(I)c(Oc2ccc(O)c(I)c2)c(I)c1` [Tiratricol] is 47.8%; for `CC(C)C[C@H]1C(=O)N2CCC[C@H]2[C@]2(O)O[C@](NC(=O)[C@@H]3C=C4c5cccc6[nH]c(Br)c(c56)C[C@H]4N(C)C3)(C(C)C)C(=O)N12` [Bromocriptine Mesylate] it is 42.2%. The same measure, in the same setting: the figure for `CC/C(=C(\c1ccccc1)c1ccc(OCCN(C)C)cc1)c1ccccc1` [Tamoxifen] is 90%.

In the case of `CC(C)C(=O)OCC(=O)[C@@]12O[C@H](C3CCCCC3)O[C@@H]1C[C@H]1[C@@H]3CCC4=CC(=O)C=C[C@]4(C)[C@H]3[C@@H](O)C[C@@]12C` [Ciclesonide], the Emax came out at 51.2%. For `COCc1c(C(C)C)nc(C(C)C)c(/C=C/[C@@H](O)C[C@@H](O)CC(=O)O)c1-c1ccc(F)cc1` [Cerivastatin Sodium], the Emax was found to be 44.3%. Consider `C[C@]12CC[C@H]3C(=CCc4cc(O)ccc43)[C@@H]1CCC2=O` [Equilin], for which the Emax was 42.4%. The same measure, in the same setting: for `C/C=C(/C)C(=O)O[C@H]1C(C)=C2[C@H]([C@@H]1OC(=O)CCCCCCC)[C@@](C)(OC(C)=O)C[C@H](OC(=O)CCC)[C@@]1(O)[C@H]2OC(=O)[C@@]1(C)O` [Thapsigargin] the value was 70%. For the compound `O=C([O-])CN(CCN(CC(=O)[O-])CC(=O)[O-])CC(=O)[O-].[Ca+2].[Na+].[Na+]` [Edetate Calcium Disodium], the Emax turned out to be 84.1%. For `Fc1ccc(C(OCCN2CCN(CCCc3ccccc3)CC2)c2ccc(F)cc2)cc1` [Vanoxerine], the Emax was found to be 56.4%.

Consider `CNC(=O)c1cc(Oc2ccc(NC(=O)Nc3ccc(Cl)c(C(F)(F)F)c3)cc2)ccn1` [Sorafenib Tosylate], for which the Emax is 81.9%. In the case of `CN1CCC(CN2c3ccccc3Sc3ccccc32)C1` (centres unmarked) [Methdilazine Hydrochloride], the Emax was determined as 51.9%. On the same count and under the same terms, for `CC(C)[C@H](NC(=O)OCc1ccccc1)C(=O)N[C@H](C=O)Cc1ccccc1` [Carbobenzoxy-valinyl-phenylalaninal] (Cbz-Val-Phe-aldehyde) the value was 60.7%; for `CCCN1C[C@H](CSC)C[C@@H]2c3cccc4[nH]cc(c34)C[C@H]21` [Pergolide Mesylate], 38.3%.

For `CCOC(=O)C1=C(COCCN)NC(C)=C(C(=O)OC)C1c1ccccc1Cl` (centres unmarked) [Amlodipine Besylate], the Emax was determined as 52.8%. As for `CC(C)(C)c1ccc(C(O)CCCN2CCC(C(O)(c3ccccc3)c3ccccc3)CC2)cc1` (centres unmarked) [Terfenadine], the Emax turned out to be 91.4%. Consider `O=C(c1ccc(OCCN2CCCCC2)cc1)c1c(-c2ccc(O)cc2)sc2cc(O)ccc12` [Raloxifene Hydrochloride], for which the Emax amounted to 69.1%. The same measure, in the same setting: the figure for `COC(=O)[C@H]1[C@H]2C[C@@H]3c4[nH]c5cc(OC)ccc5c4CCN3C[C@H]2C[C@@H](OC(=O)/C=C/c2cc(OC)c(OC)c(OC)c2)[C@@H]1OC` [Rescinnamine] is 51.2%; for `C#C[C@]1(O)CC[C@H]2[C@@H]3CCC4=Cc5oncc5C[C@]4(C)[C@H]3CC[C@@]21C` [Danazol] it is 54.6%.

Turning to `Nc1nc2ccc(Cl)cc2c2nc(-c3ccco3)nn12` [CGS 15943], the Emax was 44.9%. For the compound `C=C(C)[C@H]1Cc2c(ccc3c2O[C@@H]2COc4cc(OC)c(OC)cc4[C@@H]2C3=O)O1` [Rotenone], the Emax worked out at 70%. Still for that read-out and setting: the figure for `Cc1cc(C2CCCCC2)n(O)c(=O)c1` [Ciclopirox Olamine] is 43.1%; for `N#CC(C#N)=NNc1ccc(OC(F)(F)F)cc1` [Carbonyl cyanide 4-(trifluoromethoxy)phenylhydrazone] it is 75.2%; for `CC(=O)OCC1=C(C(=O)O)N2C(=O)[C@@H](NC(=O)CSc3ccncc3)[C@H]2SC1` [Cephapirin Sodium] it is 66.2%. `CN1CCC(=C2c3ccccc3C=Cc3ccccc32)CC1` [Cyproheptadine Hydrochloride]: the Emax came to 49.3%. Same read-out and setting: for `COc1cc2c(cc1OC)[C@@H]1C(=O)c3ccc4c(c3O[C@@H]1CO2)C=CC(C)(C)O4` [Deguelin] the value was 41.8%; for `C1CCC(C(CC2CCCCN2)C2CCCCC2)CC1` (centres unmarked) [Perhexiline Maleate], 89%.

The same test, now with this note: read-out: IC50.
As to Sodium Vanadate, the IC50 worked out at 13 µM.

The values above are taken from patent US8475804B2 (priority 2009, dated 2013).
